Measurements from PMC4549042, “Targeting procaspase-3 with WF-208, a novel PAC-1 derivative, causes selective cancer cell apoptosis” (Journal of Cellular and Molecular Medicine, 2015).
Residues, ends and D or L forms follow the SMILES beside them. *: point of attachment. Cbz = O=C(OCc1ccccc1)*; CH2F = FC*

Tests used:
[1] = test system: HL-60 cell line; assay: MTT cell viability assay, HL-60; assay type: cell-based; settings: Homo sapiens, 72 hrs
Experimental: (§1) The cell viability effects of the tested compounds were determined by MTT assay. Cells (1 × 10^4 cells/100 μl/well) were seeded into 96-well culture plates. After overnight incubation, cells were treated with various concentrations of compounds for 72 hrs. Subsequently, 10 μl MTT solution (2.5 mg/ml in PBS) was added to each well, than the cells were incubated for an additional 3–4 hrs at 37°C. After centrifugation (200 × g, 10 min.), the medium with MTT was aspirated, followed by the addition of 100 μl DMSO. The optical density of each well was measured at 570 nm with a Biotek Synergy TM HT Reader.

[2] = test system: HL-60 and U-937 cell lines; assay: Caspase inhibitors on WF-208-induced early apoptosis (Annexin V/PI); assay type: cell-based, human; settings: 50 μM inhibitor, 10 μM WF-208, 24 hrs
Experimental: Compounds were incubated with HL-60 and U-937 cells for 24 hrs. The cells were harvested and double-stained with FITC-Annexin V Apoptosis Detection Kit (BD Biosciences, San Jase, USA). Cells that positively stained with Annexin V and negatively stained with PI were considered to be early apoptotic.

[3] = test system: HL-60 and U-937 cell lines; assay: Western blot of Bcl-2 family and IAP proteins in HL-60 and U-937; assay type: cell-based, human; settings: 5 μM MG132 co-treated with 10 μM WF-208, 24 hrs
Experimental: Approximately 1 × 10^7 HL-60 cells were gathered after pre-treatment with PAC-1 and WF-208 as previously described. The tumour tissue protein was purified according to the reported methods. Western blotting was performed as previously described. All antibodies were purchased from Cell Signaling Technology. In brief, an equal amount of total protein extracts from cultured cells or tissues were fractionated by 10–15% SDS-PAGE and electrically transferred onto polyvinylidene difluoride (PVDF) membranes. Different primary antibodies and corresponding horseradish peroxidase-conjugated secondary antibodies were used to detect the proteins. The bound secondary antibodies on the PVDF membrane were reacted with ECL™ Western Blotting Reagents detection reagents (Thermo Fisher, Rockford, USA) and exposed to X-ray films. Results were normalized to the internal control β-actin.

[4] = test system: mouse primary cortical cell; assay: Cytotoxicity in mouse primary cortical neuron cells; assay type: cell-based; settings: neurotoxicity
Experimental: as §1

[5] = target: T1, rh-procaspase-3 (Homo sapiens, UniProt P42574); assay: Caspase-3 activation assay (procaspase-3 activation in vitro); assay type: biochemical; settings: rh-procaspase-3, concentrations 0.08–100 μM
T1 construct: purchased R&D System (Minneapolis, USA)
T1 sequence (P42574 1-277): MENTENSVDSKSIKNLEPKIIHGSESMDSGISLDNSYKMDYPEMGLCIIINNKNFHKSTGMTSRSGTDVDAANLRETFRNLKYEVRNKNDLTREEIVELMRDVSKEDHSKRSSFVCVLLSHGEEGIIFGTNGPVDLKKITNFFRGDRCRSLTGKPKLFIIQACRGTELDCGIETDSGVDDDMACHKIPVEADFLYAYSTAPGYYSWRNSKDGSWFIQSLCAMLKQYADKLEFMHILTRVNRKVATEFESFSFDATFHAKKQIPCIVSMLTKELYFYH
Experimental: Procaspase-3 protein was purchased from R&D System (Minneapolis, USA). Procaspase-3 protein was added into 384-well plates. Tested compounds (or DMSO as control) were then added to achieve a final concentration of procaspase-3 of 50 ng/ml. Each plate was incubated for 2 hrs at 37°C. Then caspase-3 peptide substrate (acetyl Asp-Glu-Val-Asp-[…] (Ac-DEVD-pNa), 200 μM) were added. The absorbance of each well was measured at 405 nm in kinetic mode for 10 min [13].

[6] = test system: PC-3 xenograft; assay: Human prostatic carcinoma PC-3 xenograft mouse model; assay type: in vivo; settings: 2.5 mg/kg i.v., 15 days
Experimental: To determine the anti-tumour activity of WF-208 in vivo, viable human prostate cancer PC-3 cells (5 × 10^6/100 μl PBS per mouse) were subcutaneously (s.c.) injected into the right flank of 7- to 8-week old male SCID mice. When the average tumour volume reached 100 mm^3, mice were randomly divided into various treatment and control group (eight mice per group). Tumour size was measured once every 2 days with a calliper (calculated volume = shortest diameter^2 × longest diameter/2). Body weight, diet consumption and tumour size were recorded once every 2 days. After 2 weeks, mice were killed and tumours were excised and stored at −80°C until further analysis.

IC50 [1] [µM] | Compound | further results
0.6 | CC(C)(C)c1ccc(COc2ccc(/C=N/NC(=O)CN3CCN(Cc4nc(-c5ccc(COc6ccc(F)cc6)cc5)no4)CC3)c(O)c2)cc1 [B6] | –
0.67 | CC(C)(C)c1ccc(COc2ccc(/C=N/NC(=O)CN3CCN(Cc4nc(-c5ccc(COc6ccc(Cl)cc6)cc5)no4)CC3)c(O)c2)cc1 [B4] | –
1.08 | O=C(CN1CCN(Cc2nc(-c3ccc(COc4ccccc4C(F)(F)F)cc3)no2)CC1)N/N=C/c1ccc(OCc2csc(Cc3ccc4c(c3)OCO4)n2)cc1O [C1] | –
0.98 | O=C(CN1CCN(Cc2nc(-c3ccc(COc4ccc(F)cc4)cc3)no2)CC1)N/N=C/c1ccc(OCc2cccc(C(F)(F)F)c2)cc1O [B3] | –
0.4 | CC(C)(C)c1ccc(COc2ccc(/C=N/NC(=O)CN3CCN(Cc4nc(-c5ccc(COc6ccccc6C(F)(F)F)cc5)no4)CC3)c(O)c2)cc1 [B10] | –
0.34 | O=C(CN1CCN(Cc2nc(-c3ccc(COc4ccc(F)c(F)c4)cc3)no2)CC1)N/N=C/c1ccc(OCc2ccccc2)cc1O [B7] | –
1.93 | O=C(CN1CCN(Cc2nc(-c3ccc(COc4ccccc4C(F)(F)F)cc3)no2)CC1)N/N=C/c1ccc(OCc2cccc(F)c2)cc1O [B11] | –
1.02 | O=C(CN1CCN(Cc2nc(-c3ccc(COc4ccc(F)cc4)cc3)no2)CC1)N/N=C/c1ccc(OCc2ccc(Cl)cc2Cl)cc1O [B2] | –
1.26 | O=C(CN1CCN(Cc2nc(-c3ccc(COc4ccc(Cl)cc4)cc3)no2)CC1)N/N=C/c1ccc(OCc2ccccc2)cc1O [B1] | –
1.07 | O=C(CN1CCN(Cc2nc(-c3ccc(COc4ccc(Cl)cc4)cc3)no2)CC1)N/N=C/c1ccc(OCc2ccc(Cl)cc2Cl)cc1O [B5] | –
0.3 | O=C(CN1CCN(Cc2nc(-c3ccc(COc4ccc(F)c(F)c4)cc3)no2)CC1)N/N=C/c1ccc(OCc2ccc(Cl)cc2)cc1O [B8] | –
> 20 | O=C(CN1CCN(Cc2nc(-c3ccc(COc4ccc(Cl)cc4)cc3)no2)CC1)N/N=C/c1ccc(OCc2cccc(Cl)c2)cc1O [B12] | –
0.41 | O=C(CN1CCN(Cc2nc(-c3ccc(COc4ccc(F)c(F)c4)cc3)no2)CC1)N/N=C/c1ccc(OCc2ccc(Cl)cc2Cl)cc1O [B9] | –

The remaining lines, values behind:

Compound | IC50 [1] [µM] | further results
C=CCc1cccc(/C=N/NC(=O)CN2CCN(Cc3nc(-c4ccc(COc5ccc(Cl)cc5)cc4)no3)CC2)c1O [A1] | 0.25 | –
C=CCc1cccc(/C=N/NC(=O)CN2CCN(Cc3nc(-c4ccc(COc5ccc(F)cc5)cc4)no3)CC2)c1O [A2] | 0.39 | –
COC(=O)CC[C@H](NC(=O)[C@H](CC(=O)OC)NC(=O)OCc1ccccc1)C(=O)N[C@H](C(=O)N[C@@H](CC(=O)OC)C(=O)CF)C(C)C [Z-DEVD-FMK] | – | effect of inhibitor on WF-208-induced early apoptosis [2]: abolish
CC(C)C[C@@H](C=O)NC(=O)[C@H](CC(C)C)NC(=O)[C@H](CC(C)C)NC(=O)OCc1ccccc1 [MG132, reference compound] (Cbz-Leu-Leu-Leu-aldehyde) | – | effect on down-regulation of XIAP and survivin induced by WF-208 [3]: blocked the down-regulation
C=CCc1cccc(/C=N/NC(=O)CN2CCN(Cc3nc(-c4ccc(COc5ccccc5C(F)(F)F)cc4)no3)CC2)c1O [A4] | 0.35 | –
COC(=O)C[C@H](NC(=O)[C@H](C)NC(=O)[C@@H](NC(=O)OCc1ccccc1)C(C)C)C(=O)CF [Z-VAD-FMK] (Cbz-Val-Ala-Asp(OMe)-CH2F) | – | effect of inhibitor on WF-208-induced early apoptosis [2]: abolish
C=CCc1cccc(/C=N/NC(=O)CN2CCN(Cc3ccccc3)CC2)c1O [PAC-1] | 2.1 | IC50 [4]: 50.1 µM; EC50 [5]: 6.02 µM; influence on body weight [6]: minimal influence; tumour volume compared with control group [6]: no significantly difference
COC(=O)CC[C@H](NC(=O)[C@H](CC(C)C)NC(=O)OCc1ccccc1)C(=O)N[C@@H](Cc1cnc[nH]1)C(=O)N[C@@H](CC(=O)OC)C(=O)CF [Z-LEHD-FMK] (Cbz-LE(OMe)HD(OMe)-CH2F) | – | effect of inhibitor on WF-208-induced early apoptosis [2]: partly inhibit
C=CCc1cccc(/C=N/NC(=O)CN2CCN(Cc3nc(-c4ccc(COc5cccc(Cl)c5)cc4)no3)CC2)c1O [A3] | 0.4 | –
